# Results published in patent US9012521B2, “Pyrroloquinoline quinone gel” (Mitsubishi Gas Chemical Company, Inc., priority 2010, dated 2015).
# Legend:
# [1] = Specific surface area by the BET method with N2 adsorption; type: physicochemical; conditions: pre-treatment drying at 150° C. for 20 hours
# Description: Using an Autosorb-6B manufactured by Quantachrome Instruments as the measurement apparatus, the specific surface area was determined by the BET method with N2 adsorption.
# [2] = type: physicochemical
# Source text: When mixing the salt of pyrroloquinoline quinone with the dispersion medium, the salt of pyrroloquinoline quinone may be added to the dispersion medium, the dispersion medium may be added to the salt of pyrroloquinoline quinone, or the salt of pyrroloquinoline quinone and the disperse medium may be added into separate vessels. Preferably, the salt of pyrroloquinoline quinone can be added to the dispersion medium. Preferably, the concentration of the salt of pyrroloquinoline quinone here is the same or higher than the solubility. The “solubility” as used herein refers to the extent to which a solute dissolves in a solvent, and can be expressed by the concentration of the solute in the saturated solution. The solubility of the salt of pyrroloquinoline quinone can be suitably determined by the temperature of the mixture.
# [3] = Dissolution test in water, monitored by absorption at 450 nm; type: physicochemical; conditions: 1.3 mg PQQ powder in 2 mL water, room temperature; time to complete dissolution calculated from gradient of concentration change
# Description: In Examples and Comparative Examples, UV measurements were performed using a HITACHI U-2000 Spectrophotometer. […] To an acrylic cell for UV measurement, 1.3 mg of the PQQ powder was added, followed by the addition of 2 mL of water. […] The dissolution in water was monitored by absorption at 450 nm at room temperature. Absorbance measurement was performed for one hour, and the duration until the complete dissolution was calculated from the gradient of change in the concentration.
compound,measurement,setting,value
"O=C(O)c1cc(C(=O)O)c2c(n1)C(=O)C(=O)c1cc(C(=O)O)[nH]c1-2 [Comparative Example 1, Pyrroloquinoline quinone disodium]",specific surface area,[1],2.9 m^2/g
same,solubility in water,[2],0.299 g per 100 g of water
same,Dissolution time,[3],10 min
